{"source": "the NIST ThermoML archive (doi:10.1007/s10765-013-1487-y)", "settings": "101.33 kPa, Liquid; for mass density: Vibrating tube method", "note": "“And” between values parts separate entries of the source, which are not always exact repeats. Equal entries are not always repeated. ± gives the expanded uncertainty stated by the source."}
{"smiles": "CCOS(=O)(=O)[O-].CCn1cc[n+](C)c1", "note": "[1-ethyl-3-methylimidazolium ethyl sulfate]", "values": [{"measurement": "mass density", "setting": "290.65 K", "result": "1243.24 ± 0.56", "unit": "kg/m3"}, {"measurement": "mass density", "setting": "290.66 K", "result": "1243.24 ± 0.56", "unit": "kg/m3"}, {"measurement": "viscosity", "setting": "293.14 K, Vibrating wire viscometry", "result": "125.7 ± 3.3", "unit": "mPa·s"}, {"measurement": "mass density", "setting": "293.15 K", "result": "1241.55 ± 0.56", "unit": "kg/m3"}, {"measurement": "mass density", "setting": "293.16 K", "result": "1241.54 ± 0.56", "unit": "kg/m3"}, {"measurement": "viscosity", "setting": "293.23 K, Capillary tube (Ostwald / Ubbelohde) method", "result": "128.62 ± 3.5", "unit": "mPa·s"}, {"measurement": "mass density", "setting": "295.65 K", "result": "1239.85 ± 0.56", "unit": "kg/m3"}, {"measurement": "mass density", "setting": "298.15 K", "result": "1238.14 ± 0.55 kg/m3 and 1238.15 ± 0.55 kg/m3"}, {"measurement": "mass density", "setting": "298.16 K", "result": "1238.15 ± 0.55", "unit": "kg/m3"}, {"measurement": "viscosity", "setting": "298.18 K, Capillary tube (Ostwald / Ubbelohde) method", "result": "99.37 ± 2.6", "unit": "mPa·s"}, {"measurement": "viscosity", "setting": "298.19 K, Vibrating wire viscometry", "result": "97.19 ± 2.4", "unit": "mPa·s"}, {"measurement": "mass density", "setting": "300.65 K", "result": "1236.44 ± 0.55 kg/m3 and 1236.46 ± 0.55 kg/m3"}, {"measurement": "mass density", "setting": "300.66 K", "result": "1236.45 ± 0.55", "unit": "kg/m3"}, {"measurement": "mass density", "setting": "303.15 K", "result": "1234.75 ± 0.55 kg/m3 and 1234.76 ± 0.55 kg/m3"}, {"measurement": "viscosity", "setting": "303.15 K, Vibrating wire viscometry", "result": "76.8 ± 1.8", "unit": "mPa·s"}, {"measurement": "mass density", "setting": "305.64 K", "result": "1233.06 ± 0.55", "unit": "kg/m3"}, {"measurement": "mass density", "setting": "305.65 K", "result": "1233.06 ± 0.55", "unit": "kg/m3"}, {"measurement": "mass density", "setting": "305.66 K", "result": "1233.06 ± 0.55", "unit": "kg/m3"}, {"measurement": "mass density", "setting": "308.14 K", "result": "1231.37 ± 0.55", "unit": "kg/m3"}, {"measurement": "mass density", "setting": "308.15 K", "result": "1231.37 ± 0.55", "unit": "kg/m3"}, {"measurement": "mass density", "setting": "308.16 K", "result": "1231.37 ± 0.55", "unit": "kg/m3"}, {"measurement": "viscosity", "setting": "308.21 K, Vibrating wire viscometry", "result": "61.42 ± 1.4", "unit": "mPa·s"}, {"measurement": "mass density", "setting": "310.64 K", "result": "1229.68 ± 0.55 kg/m3 and 1229.69 ± 0.55 kg/m3"}, {"measurement": "mass density", "setting": "310.66 K", "result": "1229.68 ± 0.55", "unit": "kg/m3"}, {"measurement": "viscosity", "setting": "313.14 K, Vibrating wire viscometry", "result": "50.05 ± 1.1", "unit": "mPa·s"}, {"measurement": "mass density", "setting": "313.15 K", "result": "1228 ± 0.54", "unit": "kg/m3"}, {"measurement": "mass density", "setting": "315.64 K", "result": "1226.32 ± 0.54", "unit": "kg/m3"}, {"measurement": "mass density", "setting": "315.66 K", "result": "1226.31 ± 0.54", "unit": "kg/m3"}, {"measurement": "viscosity", "setting": "318.13 K, Vibrating wire viscometry", "result": "41.42 ± 0.93", "unit": "mPa·s"}, {"measurement": "mass density", "setting": "318.15 K", "result": "1224.63 ± 0.54 kg/m3 and 1224.64 ± 0.54 kg/m3"}, {"measurement": "mass density", "setting": "320.65 K", "result": "1222.96 ± 0.54", "unit": "kg/m3"}]}
{"smiles": "CCOS(=O)(=O)[O-].CC[n+]1cccc(C)c1", "note": "[1-ethyl-3-methylpyridinium ethylsulfate]", "values": [{"measurement": "viscosity", "setting": "293.16 K, Capillary tube (Ostwald / Ubbelohde) method", "result": "182.68 ± 5.6", "unit": "mPa·s"}, {"measurement": "viscosity", "setting": "298.13 K, Capillary tube (Ostwald / Ubbelohde) method", "result": "135.35 ± 4", "unit": "mPa·s"}]}
{"smiles": "CCCCCC[n+]1ccn(C)c1.O=S(=O)([N-]S(=O)(=O)C(F)(F)F)C(F)(F)F", "values": [{"measurement": "viscosity", "setting": "293.25 K, Capillary tube (Ostwald / Ubbelohde) method", "result": "89.98 ± 2.6", "unit": "mPa·s"}, {"measurement": "viscosity", "setting": "298.19 K, Capillary tube (Ostwald / Ubbelohde) method", "result": "71.11 ± 2.1", "unit": "mPa·s"}]}
